From patent publication US20250090621A1, “METHODS AND COMPOSITIONS FOR THE TREATMENT OF AGE-RELATED MACULAR DEGENERATION” (Stealth BioTherapeutics Inc., priority 2023, published 2025)
Entries after “also recorded” stand apart in the source; their conditions may differ. Residues, ends and D or L forms follow the SMILES beside them.

Test system: patients with at least one eye with dry AMD and GA
Assay: Phase 2 randomized, placebo-controlled, double-masked trial of elamipretide (NCT03891875)
Assay type: in vivo, human
Method: Study design. In this Phase 2, randomized, placebo-controlled, double-masked, multicenter, safety and efficacy trial (ClinicalTrials.gov identifier NCT03891875), patients with at least one eye with dry AMD and GA were included. Visit 1 (screening visit) was performed no more than 14 days before the baseline visit (visit 2, day 1) (FIG. 1). Eligible patients returned for the baseline visit, at which time they were randomized (interactive response system) in a 2:1 ratio to receive either elamipretide 40 mg or placebo administered with a pen injector delivery system as a single daily self-administered subcutaneous injection. This dose was chosen based on the systemic exposure and safety profiles of elamipretide in an earlier trial (Allingham 2022; Mettu 2022). Patients were treated for 48 weeks, with assessments at day 1 and weeks 4, 8, 12, 24, 36, and 48 (visits 2 to 8) plus a final safety follow-up visit 4 weeks after the last day of study treatment (week 52; visit 9). Patient diaries and vial counts were used and reviewed to verify compliance.
Patients—Key inclusion criteria. The original protocol specified that adults≥55 years of age with one eye with dry AMD and GA were eligible for study entry. However, a subsequent amendment to the protocol limited inclusion to patients with noncentral GA. Noncentral GA and area was determined primarily by fundus autofluorescence (FAF) and all noncentral GA lesions were required to be ≥150 μm from foveal center with preserved outer retinal structural details, as confirmed by the central reading center (BIRC, Boston MA). Noncentral GA was required to be ≥0.05 mm^2 and ≤10.16 mm^2 in size, and reside completely within the FAF 30- or 35-degree image. […] The fellow eye was allowed to have AMD with or without GA, MNV, central GA, or no pathology.
Patients—Key exclusion criteria. Key exclusion criteria for study eye included absence of observable hyper-FAF at the margins of the GA (only for lesions 0.25 mm^2), atrophic retinal disease of causality other than AMD including myopia-related maculopathy and monogenetic macular dystrophies including pattern dystrophy and adult-onset Stargardt disease. Presence or diagnosis of exudative AMD or MNV, presence of retinal vein occlusion or vitreous hemorrhage, history of retinal detachment or macular hole, presence of an epiretinal membrane that causes distortion of the retinal contour, vitreomacular traction, or advanced glaucoma in the study eye were also not allowed.
Study objectives and endpoints. The primary efficacy endpoints were changes from baseline in LL BCVA and in square root converted GA area as measured by OCT. Secondary efficacy endpoints included changes in ellipsoid zone integrity, categorical changes from baseline in LL-BCVA, changes from baseline in LL reading acuity (LLRA), BCVA, and GA area as measured by FAF. Additional predefined endpoints included change in center 1-mm and 2-mm mean EZ-RPE thickness, National Eye Institute Visual Function Questionnaire (VFQ-39) score, RA at standard light, visual function by the Low-Luminance Questionnaire (LLQ). For efficacy endpoints, the unit of analysis was study eye; in cases where both eyes are eligible for analysis, the study eye was the eye with the worse LL BCVA as determined at baseline (right eye was the study eye for equal LL BCVA). Ellipsoid zone integrity was measured as previously described on OCT utilizing a machine learning enhanced multi-layer segmentation platform that provided panmacular assessment of the EZ and RPE location (Sirici, et al., Ophthamol Surg Lasers Imaging Retina, 2022; Itoh, et al, Br J Ophthamol, 2016).
The primary safety objective was to evaluate the safety/tolerability of elamipretide. […]

[1] = LS mean change from baseline to week 48, 40 mg SC once daily

With `Cc1cc(O)cc(C)c1C[C@H](NC(=O)[C@H](N)CCCNC(=N)N)C(=O)N[C@@H](CCCCN)C(=O)N[C@@H](Cc1ccccc1)C(N)=O` [elamipretide, H-D-Arg-2′,6′Dmt-Lys-Phe-NH2] (HELM PEPTIDE1{[dR].[Cc1cc(O)cc(C)c1C[C@H](N[*:1])C(=O)[*:2]].K.F.[am]}$$$$V2.0) the “LS mean change from baseline to week 48 for macular percentage of tEZa (EZ-RPE thickness of 0 μm)” value (40 mg SC once daily, OCT, mITT, placebo 6.47% [0.737], P=0.0034) was 3.69%, the “LS mean change from baseline to week 48 for pEZa (EZ-RPE thickness ≤20 μm)” value (40 mg SC once daily, OCT, mITT, placebo 7.68% [0.969], P=0.0040) was 4.10% and the “square root of GA area progression as measured by OCT” value (40 mg SC once daily, week 48, mITT, placebo 0.275, P=0.34) was 0.312 mm. The “patients experiencing a ≥2-line gain (≥10 letter) in LL BCVA” value (40 mg SC once daily, week 48, mITT, placebo 2.1%, P=0.0404) was 14.6%, the “percentage of patients at week 48 experiencing a >1-line gain” value (40 mg SC once daily, in words, versus placebo) was “higher compared to placebo” and the “progression of GA area relative to the baseline boundary of total EZ attenuation” value (48-week trial, in words) was “did not progress to the baseline boundary of total EZ attenuation”. For the same molecule, the “progression of partial EZ attenuation versus placebo” value (48 weeks, mITT, in words) was “reduces partial EZ attenuation”, the “progression of total EZ attenuation versus placebo” value (48 weeks, mITT, in words) was “significantly less progression of tEZa; also recorded: reduces total EZ attenuation” and the “growth of partial EZ attenuation area during the trial” value (48 weeks, placebo arm 34%) was 15%. For the same molecule, the “growth of total EZ attenuation area (mm^2) during the trial” value (48 weeks, placebo arm 48%) was 26%, the “reduction in progression of partial EZ attenuation relative to placebo” value [1] was 47% and the “reduction in progression of total EZ attenuation relative to placebo” value [1] was 43%. The “least squares (LS) mean change from baseline in LL BCVA” value (elamipretide 40 mg SC once daily, week 48, mITT, study eye, placebo −4.4, P=0.49) was −3.0 letters, the “Early discontinuation, reason: Withdrawal by subject” value (elamipretide arm n=117, placebo 3 (5.1)) was 20 (17.1) n (%) and the “Early discontinuation, reason: Adverse event” value (elamipretide arm n=117, placebo 4 (6.8)) was 10 (8.5) n (%). For the same molecule, the “Subjects leaving study early” value (elamipretide arm n=117, placebo 8 (13.6)) was 34 (29.1) n (%), the “GA zonal lesion area, change from baseline at Week 48” value (mITT n=76, baseline 2.63, placebo 0.99) was 1.15 mm^2 and the “patients who discontinued the study early” value (of 117 randomized to elamipretide [29%], placebo n=8) was 34 patients. For the same molecule, the “early discontinuation due to adverse events” value (of 117 randomized to elamipretide, placebo 4) was 10 patients, the “early discontinuation due to withdrawal by subject” value (of 117 randomized to elamipretide, placebo n=3) was 20 patients and the “tEZa zonal lesion area, change from baseline at Week 48” value (post hoc, percent attenuation x total macular area on OCT, mITT n=72, baseline 5.39, placebo 2.23, p = 0.04) was 1.39 mm^2. For the same molecule, the “pEZa zonal lesion area, change from baseline at Week 48” value (post hoc, percent attenuation x total macular area on OCT, mITT n=72, baseline 9.03, placebo 2.65, p = 0.01) was 1.34 mm^2, the “progression of the EZ-GA gap” value (post-hoc, total randomized population, baseline, 24 and 48 weeks, in words, versus placebo) was “slower rate of progression; also recorded: reduced progression of EZ-GA gap” and the “treatment effect in LL BCVA versus placebo, subgroup with mean center 1 mm EZ-RPE thickness ≥10-micron” value (post-hoc, week 48, in words) was “trended towards a treatment effect”. For the same molecule, the “categorical improvement in LL BCVA (≥2-line gain) versus placebo” value (week 48, mITT, in words) was “significantly more patients experiencing a ≥2-line gain; also recorded: categorical improvement in LL BCVA”.
